# Experimental data published in patent US9428456B2, “1-[m-carboxamido(hetero)aryl-methyl]-heterocyclyl-carboxamide derivatives” (Actelion Pharmaceuticals Ltd., priority 2012, dated 2016).
# Molecular target: CXCR7 (Homo sapiens (Human), UniProt P25106)
# Assay: PathHunter CHO-K1 CXCR7 b-arrestin assay (agonistic activity)
# Format: cell-based
# Conditions: PathHunter CHO-K1 CXCR7 b-arrestin cell line
# Procedure: The CXCl12 receptor and CXCR7 agonistic activities of the compounds of formula (I) are determined in accordance with the following experimental method.
# The assay is using the PathHunter™ CHO-K1 CXCR7 b-arrestin cell line from DiscoverX. The system is based on the Enzyme Fragment Complementation Technology. Two complementing fragments of the b-galactosidase enzyme are expressed within stably transfected cells. The larger portion of b-gal, termed EA for Enzyme Acceptor, is fused to the C-terminus of b-arrestin 2. The smaller fragment, termed ProLink™ tag, is fused to CXCR7 at the C-terminus. Upon activation, b-arrestin is recruited which forces the interaction of ProLink and EA, allowing complementation of the two fragments of b-gal and the formation of a functional enzyme which is capable of hydrolysing the substrate and generating a chemiluminescent signal.
# CHO-K1 CXCR7 b-arrestin cells are detached from culture dishes with a cell dissociation buffer (Invitrogen, #13151-014) and collected in growing medium (F12 HAMS 90% (v/v)/FCS 10% (v/v), Penicilin/streptomycin 1% (v/v)). 5000 cells per well (in 20 μl) are seeded in a 384 well plate (white-walled, clear bottom; BD Falcon #353274). The plate is incubated at 37° C./5% CO2 for 24 hours. Medium is then replaced by 20 μl OPTIMEM (Invitrogen #31985) for 3 to 4 hours. Test compounds are dissolved at 10 mM in DMSO and serially diluted in DMSO to 200× of the final concentration for dose response curves. Compounds are then diluted 1:33.3 in HBSS1×. 5 μl/well of HBSS1×/20 mM HEPES/0.2% BSA are added to the assay plate followed by addition of 5 μl/well of diluted compounds. CXCL12 (Peprotech #300-28A) may be used as a reference agonist. The plate is incubated for 90 minutes at 37° C. 12 μl of detection reagent (Path Hunter Detection Kit, DiscoveRx, #93-0001) is transferred to the assay plate and to the plate is incubated for 1 hour at room temperature. Luminescent signal is read in a microplate reader (FLUOstar Optima, bmg). The calculated EC50 values may fluctuate depending on the daily cellular assay performance. Fluctuations of this kind are known to those skilled in the art. Average EC50 values from several measurements are given as geometric mean values.
# Chain of CXCR7 (P25106 whole entry): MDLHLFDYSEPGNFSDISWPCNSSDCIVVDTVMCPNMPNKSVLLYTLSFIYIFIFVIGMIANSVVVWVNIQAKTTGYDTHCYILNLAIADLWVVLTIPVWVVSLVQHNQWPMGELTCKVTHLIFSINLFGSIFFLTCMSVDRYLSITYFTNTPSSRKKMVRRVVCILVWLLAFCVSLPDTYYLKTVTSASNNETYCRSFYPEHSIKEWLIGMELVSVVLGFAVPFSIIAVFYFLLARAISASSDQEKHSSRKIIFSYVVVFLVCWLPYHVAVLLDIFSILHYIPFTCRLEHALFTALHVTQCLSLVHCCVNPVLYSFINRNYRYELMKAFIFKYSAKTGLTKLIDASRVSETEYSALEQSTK
# Chain of CXCR7 (P32121 whole entry partner): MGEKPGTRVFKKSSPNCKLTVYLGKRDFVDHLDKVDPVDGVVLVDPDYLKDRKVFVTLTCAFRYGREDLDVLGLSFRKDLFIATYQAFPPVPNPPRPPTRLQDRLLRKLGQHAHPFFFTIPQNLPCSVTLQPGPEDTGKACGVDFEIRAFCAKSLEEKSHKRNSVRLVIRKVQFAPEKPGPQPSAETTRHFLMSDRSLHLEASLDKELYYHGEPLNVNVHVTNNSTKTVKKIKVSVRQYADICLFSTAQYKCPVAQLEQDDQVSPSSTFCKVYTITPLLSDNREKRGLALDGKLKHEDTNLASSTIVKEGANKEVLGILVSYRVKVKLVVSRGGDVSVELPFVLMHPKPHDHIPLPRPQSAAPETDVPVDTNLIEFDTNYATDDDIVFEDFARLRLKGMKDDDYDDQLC
row,SMILES,EC50
1,O=C(CC1Cc2ccccc2C1)Nc1cccc(CN2CCC(C(=O)NC3CCCCC3)CC2)c1 [Example 1.052],36 nM
2,O=C(Nc1cccc(CN2CCC(C(=O)NC3CCCCC3)CC2)c1)c1ccncc1 [Example 1.053],40 nM
3,Cc1cc(C(=O)Nc2cccc(CN3CCC(C(=O)NC4CCCCC4)CC3)c2)cc(C2CCCC2)n1 [Example 1.054],41 nM
4,Cc1cc(C(=O)Nc2cccc(CN3CCC(C(=O)NC4CCCCC4)CC3)c2)ccn1 [Example 1.055],10 nM
5,O=C(Nc1cccc(CN2CCC(C(=O)NC3CCCCC3)CC2)c1)c1cncc(F)c1 [Example 1.056],7 nM
6,O=C(Nc1cccc(CN2CCC(C(=O)NC3CCCCC3)CC2)c1)c1ccc(F)cn1 [Example 1.057],0.8 nM
7,O=C(Nc1cccc(CN2CCC(C(=O)NC3CCCCC3)CC2)c1)c1cncc(C(F)(F)F)c1 [Example 1.058],5 nM
8,O=C(Nc1cccc(CN2CCC(C(=O)NC3CCCCC3)CC2)c1)c1cccnc1C(F)(F)F [Example 1.059],393 nM
9,Cc1cncc(C(=O)Nc2cccc(CN3CCC(C(=O)NC4CCCCC4)CC3)c2)c1 [Example 1.060],4 nM
10,Cc1cccnc1C(=O)Nc1cccc(CN2CCC(C(=O)NC3CCCCC3)CC2)c1 [Example 1.061],1 nM
11,COc1cc(C(=O)Nc2cccc(CN3CCC(C(=O)NC4CCCCC4)CC3)c2)nc(OC)n1 [Example 1.062],57 nM
12,Cc1ccncc1C(=O)Nc1cccc(CN2CCC(C(=O)NC3CCCCC3)CC2)c1 [Example 1.063],237 nM
13,Cc1ccc(C(=O)Nc2cccc(CN3CCC(C(=O)NC4CCCCC4)CC3)c2)cn1 [Example 1.064],19 nM
14,Cc1ncccc1C(=O)Nc1cccc(CN2CCC(C(=O)NC3CCCCC3)CC2)c1 [Example 1.065],59 nM
15,O=C(Nc1cccc(CN2CCC(C(=O)NC3CCCCC3)CC2)c1)c1cccnc1Cl [Example 1.066],44 nM
16,O=C(Nc1cccc(CN2CCC(C(=O)NC3CCCCC3)CC2)c1)c1ccc(Cl)nc1 [Example 1.067],2 nM
17,O=C(Nc1cccc(CN2CCC(C(=O)NC3CCCCC3)CC2)c1)c1ccc(C(F)(F)F)nc1 [Example 1.068],7 nM
18,COc1ncccc1C(=O)Nc1cccc(CN2CCC(C(=O)NC3CCCCC3)CC2)c1 [Example 1.069],10 nM
19,Cc1ccc(C(=O)Nc2cccc(CN3CCC(C(=O)NC4CCCCC4)CC3)c2)c(Cl)n1 [Example 1.070],40 nM
20,CCN(CC)c1ccc(C(=O)Nc2cccc(CN3CCC(C(=O)NC4CCCCC4)CC3)c2)cn1 [Example 1.071],182 nM
21,CN1CCN(c2ccc(C(=O)Nc3cccc(CN4CCC(C(=O)NC5CCCCC5)CC4)c3)cn2)CC1 [Example 1.072],471 nM
22,O=C(Nc1cccc(CN2CCC(C(=O)NC3CCCCC3)CC2)c1)c1cccnc1N1CCOCC1 [Example 1.073],371 nM

row,SMILES,EC50
1,O=C(Nc1cccc(CN2CCC(C(=O)NC3CCCCC3)CC2)c1)c1ccncc1Cl [Example 1.074],60 nM
2,COc1cc(C(=O)Nc2cccc(CN3CCC(C(=O)NC4CCCCC4)CC3)c2)cc(Cl)n1 [Example 1.075],9 nM
3,O=C(Nc1cccc(CN2CCC(C(=O)NC3CCCCC3)CC2)c1)c1cnc2[nH]ccc2c1 [Example 1.076],26 nM
4,O=C(Nc1cccc(CN2CCC(C(=O)NC3CCCCC3)CC2)c1)c1cc(Cl)ccn1 [Example 1.077],3 nM
5,O=C(Nc1cccc(CN2CCC(C(=O)NC3CCCCC3)CC2)c1)c1cccc(Cl)n1 [Example 1.078],1 nM
6,O=C(Nc1cccc(CN2CCC(C(=O)NC3CCCCC3)CC2)c1)c1cccc[n+]1[O-] [Example 1.080],14 nM
7,Cc1cccc(C(=O)Nc2cccc(CN3CCC(C(=O)NC4CCCCC4)CC3)c2)n1 [Example 1.081],0.9 nM
8,Cc1ccnc(C(=O)Nc2cccc(CN3CCC(C(=O)NC4CCCCC4)CC3)c2)c1 [Example 1.082],4 nM
9,Cc1cc(C)nc(C(=O)Nc2cccc(CN3CCC(C(=O)NC4CCCCC4)CC3)c2)c1 [Example 1.083],11 nM
10,O=C(Nc1cccc(CN2CCC(C(=O)NC3CCCCC3)CC2)c1)c1ccc(N2CCCC2)cn1 [Example 1.084],39 nM
11,O=C(Nc1cccc(CN2CCC(C(=O)NC3CCCCC3)CC2)c1)c1ncccc1Br [Example 1.085],1 nM
12,Cc1ncncc1C(=O)Nc1cccc(CN2CCC(C(=O)NC3CCCCC3)CC2)c1 [Example 1.086],527 nM
13,O=C(Nc1cccc(CN2CCC(C(=O)NC3CCCCC3)CC2)c1)c1ncccn1 [Example 1.087],36 nM
14,Cc1cc(C(=O)Nc2cccc(CN3CCC(C(=O)NC4CCCCC4)CC3)c2)nc(N(C)C)n1 [Example 1.088],24 nM
15,O=C(Nc1cccc(CN2CCC(C(=O)NC3CCCCC3)CC2)c1)c1cc(F)c(Cl)nc1Cl [Example 1.089],15 nM
16,O=C(Nc1cccc(CN2CCC(C(=O)NC3CCCCC3)CC2)c1)c1cnc(Cl)c(Cl)c1 [Example 1.090],6 nM
17,O=C(Nc1cccc(CN2CCC(C(=O)NC3CCCCC3)CC2)c1)c1ccc(Cl)nc1Cl [Example 1.091],12 nM
18,COc1ccc(C(=O)Nc2cccc(CN3CCC(C(=O)NC4CCCCC4)CC3)c2)cn1 [Example 1.092],3 nM
19,O=C(Nc1cccc(CN2CCC(C(=O)NC3CCCCC3)CC2)c1)c1cnc2cc[nH]c2c1 [Example 1.093],149 nM
20,O=C(Nc1cccc(CN2CCC(C(=O)NC3CCCCC3)CC2)c1)c1ccc(Cl)cn1 [Example 1.094],1 nM
21,O=C(Nc1cccc(CN2CCC(C(=O)NC3CCCCC3)CC2)c1)c1ccccc1OC(F)(F)F [Example 1.095],5 nM
22,CN(C)c1ccc(C(=O)Nc2cccc(CN3CCC(C(=O)NC4CCCCC4)CC3)c2)cc1 [Example 1.096],40 nM

row,SMILES,EC50
1,CCc1ccc(C(=O)Nc2cccc(CN3CCC(C(=O)NC4CCCCC4)CC3)c2)cc1 [Example 1.097],5 nM
2,CC(C)c1ccc(C(=O)Nc2cccc(CN3CCC(C(=O)NC4CCCCC4)CC3)c2)cc1 [Example 1.098],12 nM
3,Cc1ccccc1C(=O)Nc1cccc(CN2CCC(C(=O)NC3CCCCC3)CC2)c1 [Example 1.099],19 nM
4,Cc1cccc(C(=O)Nc2cccc(CN3CCC(C(=O)NC4CCCCC4)CC3)c2)c1 [Example 1.100],3 nM
5,Cc1ccc(C(=O)Nc2cccc(CN3CCC(C(=O)NC4CCCCC4)CC3)c2)cc1 [Example 1.101],4 nM
6,O=C(Nc1cccc(CN2CCC(C(=O)NC3CCCCC3)CC2)c1)c1ccccc1F [Example 1.102],4 nM
7,O=C(Nc1cccc(CN2CCC(C(=O)NC3CCCCC3)CC2)c1)c1cccc(C(F)(F)F)c1 [Example 1.104],5 nM
8,O=C(Nc1cccc(CN2CCC(C(=O)NC3CCCCC3)CC2)c1)c1ccc(C(F)(F)F)cc1 [Example 1.105],5 nM
9,N#Cc1cccc(C(=O)Nc2cccc(CN3CCC(C(=O)NC4CCCCC4)CC3)c2)c1 [Example 1.106],12 nM
10,N#Cc1ccc(C(=O)Nc2cccc(CN3CCC(C(=O)NC4CCCCC4)CC3)c2)cc1 [Example 1.107],8 nM
11,Cc1cccc(C)c1C(=O)Nc1cccc(CN2CCC(C(=O)NC3CCCCC3)CC2)c1 [Example 1.108],633 nM
12,Cc1cccc(C(=O)Nc2cccc(CN3CCC(C(=O)NC4CCCCC4)CC3)c2)c1C [Example 1.109],40 nM
13,Cc1ccc(C)c(C(=O)Nc2cccc(CN3CCC(C(=O)NC4CCCCC4)CC3)c2)c1 [Example 1.110],8 nM
14,Cc1ccc(C(=O)Nc2cccc(CN3CCC(C(=O)NC4CCCCC4)CC3)c2)c(C)c1 [Example 1.111],4 nM
15,Cc1cc(C)cc(C(=O)Nc2cccc(CN3CCC(C(=O)NC4CCCCC4)CC3)c2)c1 [Example 1.112],21 nM
16,Cc1ccc(C(=O)Nc2cccc(CN3CCC(C(=O)NC4CCCCC4)CC3)c2)cc1C [Example 1.113],7 nM
17,Cc1c(F)cccc1C(=O)Nc1cccc(CN2CCC(C(=O)NC3CCCCC3)CC2)c1 [Example 1.114],13 nM
18,Cc1cc(F)ccc1C(=O)Nc1cccc(CN2CCC(C(=O)NC3CCCCC3)CC2)c1 [Example 1.115],5 nM
19,Cc1ccc(F)c(C(=O)Nc2cccc(CN3CCC(C(=O)NC4CCCCC4)CC3)c2)c1 [Example 1.116],6 nM
20,Cc1cc(F)cc(C(=O)Nc2cccc(CN3CCC(C(=O)NC4CCCCC4)CC3)c2)c1 [Example 1.117],4 nM
21,Cc1cc(C(=O)Nc2cccc(CN3CCC(C(=O)NC4CCCCC4)CC3)c2)ccc1F [Example 1.118],3 nM
22,Cc1ccc(C(=O)Nc2cccc(CN3CCC(C(=O)NC4CCCCC4)CC3)c2)c(F)c1 [Example 1.119],6 nM
